Experimental data from patent US20240350456A1, “COMPOSITIONS AND METHODS FOR DIAGNOSING AND TREATING INFLAMMATORY CONDITIONS” (RUTGERS, THE STATE UNIVERSITY OF NEW JERSEY, priority 2023, published 2024).

Assays:
[1] = test system: human-derived Caco-2 cells; assay: In vitro transwell screening in Caco-2 cells, barrier disrupted by Clostridium difficile toxin (TEER and FITC-dextran permeability); assay type: cell-based; conditions: for TEER, indole metabolites (FIG. 22A): applied to the lumen, TOX; for integrated TEER (area under the curve, FIG. 21B): luminal, C. difficile toxin
From the text: FIG. 20A-20B. In vitro screening of metabolites effective against leaky gut. FIG. 20A, Diagram of the in vitro transwell method used to evaluate efficacy of metabolites in protecting the leaky gut in human-derived Caco-2 cells. The luminal compartment represents the food side, and the basolateral the blood side. FIG. 20B, Transepithelial electrical resistance (TEER) measurements, and FITC-dextran measurements, evaluate the leakiness of the tight junction that regulates the pore (top) and leak (bottom) pathways of the gut. Ions (red), small molecules (blue), FITC-dextran (orange).
FIG. 21A-21D. Efficacy of tryptophan and vitamin B3 metabolites in protecting the gut barrier in vitro. FIG. 21A, TEER measurements of metabolites placed on luminal side of transwells for 72 hours. After 48 hours, the barrier was disrupted by the toxin of clostrium difficile (Cdiff). FIG. 21B, Integrated results of area under the curve using data from FIG. 21A. FIG. 21C, FITC-dextran permeability analysis of metabolites applied luminally. FIG. 21D, FITC-dextran permeability analysis of metabolites applied basolaterally.
FIG. 22A-22B. Efficacy of microbiota-derived indole metabolites in protecting the gut barrier. FIG. 22A, Integrated results of TEER measurements of metabolites placed on luminal side of transwells for 72 hours. After 48 hours, the barrier was disrupted by the toxin of clostrium difficile (Cdiff) FIG. 22B, FITC-dextran permeability analysis of metabolites from FIG. 22A applied luminally.
To perform in vitro screening of the metabolites effective against leaky gut, an in vitro transwell method was used. (FIG. 20A) The efficacy of these metabolites in protecting the leaky gut was analyzed in human-derived Caco-2 cells. Transepithelial electrical resistance (TEER) measurements evaluates the leakiness of the tight junction that regulates the pore (FIG. 20B, top) and leak (FIG. 20B, bottom) pathways of the gut. The higher the TEER, the less permeable the junction is to the movement of ions and small molecules. FITC-dextran is a large polysaccharide with a fluorescent moiety, typically used as a probe to assess the leakiness of the tight junction to large molecules like dextran. The faster the movement of FITC-dextran from lumen to blood, the greater the permeability.
(FIG. 21A) There was no effect of these metabolites on TEER when applied by themselves. After 48 h, the barrier was disrupted by the toxin of a common “bad” bacteria Clostridium difficile (Cdiff). TEER plummeted with this toxin (TOX, red line) compared to control (Veh, blue line). […] (FIG. 21A)

ZO-1 (Tjp1) and Ocln = assay: Intestinal organoids treated with LPS and metabolites: tight junction (TJ) expression, RT-qPCR and immunostaining; assay type: cell-based, mouse
Experimental: Intestinal organoids were isolated as previously described (Das et al., 2015; Pearce et al., 2018). Briefly, crypts were isolated from small intestine of conventional house C57BL/6 male mice (Taconic Laboratories, Hudson, NY) by shaking in isolation buffer (2 mM EDTA in PBS), then, crypts were harvested, processed, and suspended in crypt culture medium (CCM), which consisted of advanced DMEM/F12 (Life Technologies, Carlsbad, CA) supplemented with serum-free B27 (1:50; Life Technologies), N2 (1:100; Life Technologies), N-acetylcysteine (1 mM; Sigma-Aldrich, St. Louis, MO), recombinant murine epithelial growth factor (EGF, 50 ng/ml; Peprotech, Rocky Hill, NJ), Noggin (100 ng/ml; Peprotech), R-Spondin (500 ng/ml; Peprotech), Glutamax-I supplement (1:100; Life Technologies), penicillin/streptomycin (500 μg/ml; Life Technologies), and HEPES ([…]; Life Technologies). Crypts were resuspended in 70% Matrigel (density ˜450 crypts per dome, 2 domes per well in 24-well plate) and allowed to solidify at 37° C. for 20 min. CCM (1.5 mL) was then added to each well. Cultures were incubated in a humidified incubator at 37° C., and CCM was changed daily. Intestinal organoid treatment with LPS and metabolites
(§1) We had 2 series of metabolite-treated organoid experiments, i.e., 1) organoid from conventional C57BL6 mice and 2) Ocln KO and littermate WT control as a gift from Prof. Jerrold Turner (Harvard University). […] Seeding is designated as day 0. On day 3 of culture, the existing media in the wells were completely removed before adding treatments. LPS (1 μg/mL) with or without metabolites, i.e., IPA (0.1 mM) (Li et al., 2021), IAM (200 μM) (Vyhlidalova et al., 2020), MNA (12 ng/ml) (Liu et al., 2015), CARN (20 mM) (Boldyrev et al., 2013) or ASA (1 μM) (Erez et al., 2011) were each added in CCM at known physiological concentrations, incubated for 48 hours, thereafter, organoid was harvested for RNA extraction, and paraformaldehyde fixation for immunostaining.
(§2) Total RNA was extracted from the intestinal organoids using a commercially available kit (RNeasy Microkit; Qiagen, MD, Cat. #74004) following manufacturer's instructions. mRNA samples were converted to cDNA using Bio-Rad's iScript Reverse Transcription Supermix for RT-qPCR (Bio-Rad Laboratories, Hercules, CA, Cat. #1708840). cDNA was then used for RT-qPCR (Mx3000P. Stratagene, La Jolla, CA) to analyze several genes using Maxima SYBR Green qPCR Master Mix (Thermo Fisher Scientific, Waltham, MA) and primers (Integrated DNA Technologies, Coralville, IA). Thermal profile for three-step cycling was 10 min at 95° C. for initial denaturation; then 40 cycles of 15 sec at 95° C. for denaturation, 30 sec at 65° C. for annealing, and 30 sec at 75° C. for extension. Primers used are as follows: β-actin (Actb), forward 5′-[…]-3′ (SEQ ID NO: 5), reverse 5′-[…]-3′ (SEQ ID NO: 6); ZO-1 (Tjp1), forward 5′-[…]-3′ (SEQ ID NO: 7), reverse 5′-[…]-3′ (SEQ ID NO: 8), Ocln, forward 5′-[…]-3′ (SEQ ID NO: 9), reverse 5′-[…]-3′ (SEQ ID NO: 10); Lyz1, forward 5′-ATGGCTACCGTGGTGTCAAG-3′ (SEQ ID NO: 11), reverse 5′-CGGTCTCCACGGTTGTAGTT-3′ (SEQ ID NO: 12); Tff3, forward 5′-TAATGCTGTTGGTGGTCCTG-3′ (SEQ ID NO: 13), reverse 5′-CAGCCACGGTTGTTACACTG-3′ (SEQ ID NO: 14). All samples were normalized to β actin expression. Gene expression levels are depicted as fold change relative to the control group.
(§3) Immunocytochemistry followed earlier work (Pearce et al., 2018). Briefly, organoids were extracted from Matrigel by using cell recovery solution (Corning, Cat. No. 354253), processed then fixed in 4% paraformaldehyde for 15 min and dehydrated with 70% ethanol and kept in 4° C. until embedded in paraffin. On the day of embedding, organoids were gently spun down to a pellet (250 g for 5 min), then the supernatant was removed, the pellet resuspended in agarose and embedded in paraffin. […]

[2] = test system: Tff3 and Lyz1 (goblet and Paneth cells); assay: Organoids: goblet and Paneth cell transcripts (Tff3, Lyz1) and cell numbers; assay type: cell-based, mouse; conditions: enteroids
Experimental: as §1, §2, §3

Compound	TEER, indole metabolites (FIG. 22A) [1]	integrated TEER (area under the curve, FIG. 21B) [1]	also measured
N#CCc1c[nH]c2ccccc12 [Indole-3-acetonitrile]	clearly protective against TOX-induced decreases in TEER	–	–
O=C(O)c1c[nH]c2ccccc12 [Indole-3-carboxylic.acid, indole-3-carboxylic acid]	clearly protective against TOX-induced decreases in TEER	–	–
O=C(O)CCc1c[nH]c2ccccc12 [Indole-3-propionic.acid, indole-3-propionic acid]	clearly protective against TOX-induced decreases in TEER	–	gene expression of Ocln (ZO-1 (Tjp1) and Ocln; ex vivo, in the presence of the barrier disruptor): increased gene expression of Ocln; TJ expression at the protein and mRNA levels (ZO-1 (Tjp1) and Ocln; in the presence of LPS (1 μg/mL), 48 hr): increased TJ expression; goblet and Paneth cell transcripts and cell numbers [2]: reduced goblet and Paneth cell transcripts as well as cell numbers
O=C(O)C(O)Cc1c[nH]c2ccccc12 (stereo not shown) [Indolelactic.acid, indole-3-lactic acid]	clearly protective against TOX-induced decreases in TEER	–	–
NC(=O)c1ccc[n+]([C@@H]2O[C@H](COP(=O)([O-])OP(=O)(O)OC[C@H]3O[C@@H](n4cnc5c(N)ncnc54)[C@H](O)[C@@H]3O)[C@@H](O)[C@H]2O)c1 [NAD]	–	protected the cells from barrier disruption by TOX	–
NC(=O)c1cccnc1 [NAM, nicotinamide]	–	protected the cells from barrier disruption by TOX	–
NC(=O)c1ccc[n+]([C@@H]2O[C@H](CO)[C@@H](O)[C@H]2O)c1 [Nicotinamide.riboside, nicotinamide riboside]	–	protected the cells from barrier disruption by TOX	–
